Results as given in EP0396317B1, “Pharmaceutical composition” (priority 1989, dated 1990).

Experiment: solubility and pH-dependent separation of the carbenoxolone/chlorhexidine complex
Format: physicochemical

- behaviour of the complex suspension at high pH (pH 9.0 or more): can be separated by filtration
- behaviour of the complex suspension at low pH (pH less than 3.5 / 3.5 or less): will remain in solution
Structure (SMILES): [H]/N=C(\N/C(=N/[H])NCCCCCCNC(=N)NC(=N)Nc1ccc(Cl)cc1)Nc1ccc(Cl)cc1 [chlorhexidine]
